Test results published in doi:10.1101/2021.06.18.449075v2, “Understanding the mechanism of monoADP ribosylation in OsSRT1 and its linkage to DNA repair system under stress conditions” (biorxiv, 2021).
Read-outs that look alike come from different tables or passages of the source.

Experiments:
[1] = biological target: T1, OsSRT1 (Oryza sativa, UniProt B8ARK7); assay: auto-ADP-ribosylation, anti-biotin dot blot, Michaelis-Menten fit; format: biochemical; details: 6 nM OsSRT1, 0-100 µM Bio-NAD+, pH 7.5, 25°C; auto-ADPr without H3; labelled compound
T1 construct: gene SRT1; OsSRT1 gene (483 aa) in pET30a (BamHI/EcoRI), His-tagged, E. coli BL21(DE3), HisTrap purified; tag removal not mentioned
T1 sequence (B8ARK7 1-483): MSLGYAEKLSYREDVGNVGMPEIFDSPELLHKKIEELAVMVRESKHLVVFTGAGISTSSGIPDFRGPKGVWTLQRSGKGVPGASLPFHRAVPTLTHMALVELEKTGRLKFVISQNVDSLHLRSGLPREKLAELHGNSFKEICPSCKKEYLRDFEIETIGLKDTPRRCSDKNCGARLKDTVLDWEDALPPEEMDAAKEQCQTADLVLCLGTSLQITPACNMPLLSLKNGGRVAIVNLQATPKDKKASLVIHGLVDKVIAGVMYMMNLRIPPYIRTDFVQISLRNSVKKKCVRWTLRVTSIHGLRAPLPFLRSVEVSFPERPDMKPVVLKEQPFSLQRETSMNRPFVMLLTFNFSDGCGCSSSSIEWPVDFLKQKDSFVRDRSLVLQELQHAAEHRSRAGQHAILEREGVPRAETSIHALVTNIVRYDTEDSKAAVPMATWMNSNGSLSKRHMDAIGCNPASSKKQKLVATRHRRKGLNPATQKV

[2] = biological target: T1, OsSRT1; assay: auto-ADP-ribosylation, anti-biotin western blot; format: biochemical

Compound | IC50 [2] | other results
Bio-NAD^+ | – | Km [1]: 37.4 ± 4 µM
O=C(O)c1cccnc1 [nicotinic acid] | 32 ± 4 µM | –
NC(=O)c1cccnc1 [nicotinamide] | 26 ± 2 µM | –
Nc1ncnc2c1ncn2[C@@H]1O[C@H](COP(=O)(O)OP(=O)(O)OC[C@H]2OC(O)[C@H](O)[C@@H]2O)[C@@H](O)[C@H]1O (stereo partly shown) [ADP-ribose] | – | IC50 ([2]; auto-ADPr with Bio-NAD+, standard buffer 50 mM Tris pH 7.5, 150 mM NaCl, 10 mM DTT, 75 μM NAD+, 40 μM Bio-NAD+, 25°C, 1 h, product inhibition): 18 ± 4 µM
